Test results as given in paper PMC3368886, “ATPase Cycle and DNA Unwinding Kinetics of RecG Helicase” (PLoS ONE, 2012).
pKi: −log10 of the molar value.

Assays:
RecG⋅DNA(A40:B40) [1] = target: T1, RecG⋅DNA(A40:B40) (Thermotoga maritima, UniProt Q9WY48); assay: Pi release with excess ATP, global fit to ATPase cycle model; assay type: biochemical; details: fixed to be consistent with K i for ADP
T1 construct: made in house
T1 sequence (Q9WY48 1-780): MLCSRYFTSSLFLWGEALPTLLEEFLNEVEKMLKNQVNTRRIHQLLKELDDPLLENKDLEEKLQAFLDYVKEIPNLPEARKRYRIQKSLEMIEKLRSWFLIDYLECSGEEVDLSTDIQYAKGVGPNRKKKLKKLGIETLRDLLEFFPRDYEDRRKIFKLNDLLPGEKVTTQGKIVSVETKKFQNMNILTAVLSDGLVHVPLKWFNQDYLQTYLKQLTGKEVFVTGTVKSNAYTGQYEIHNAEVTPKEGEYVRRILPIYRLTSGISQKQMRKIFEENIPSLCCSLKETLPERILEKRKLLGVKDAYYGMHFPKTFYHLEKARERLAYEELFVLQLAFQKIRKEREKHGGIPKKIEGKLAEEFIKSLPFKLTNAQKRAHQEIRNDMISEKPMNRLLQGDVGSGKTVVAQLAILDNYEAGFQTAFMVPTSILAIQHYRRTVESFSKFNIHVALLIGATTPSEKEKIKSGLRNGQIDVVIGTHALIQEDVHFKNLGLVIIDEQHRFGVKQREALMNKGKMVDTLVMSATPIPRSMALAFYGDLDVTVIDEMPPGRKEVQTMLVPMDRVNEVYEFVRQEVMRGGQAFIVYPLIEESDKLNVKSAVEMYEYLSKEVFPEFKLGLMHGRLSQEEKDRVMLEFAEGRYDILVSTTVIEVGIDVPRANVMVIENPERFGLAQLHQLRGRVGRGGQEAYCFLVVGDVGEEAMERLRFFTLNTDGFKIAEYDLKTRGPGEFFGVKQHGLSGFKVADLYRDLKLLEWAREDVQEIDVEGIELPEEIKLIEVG
Method: The rate of Pi release was measured after mixing RecG⋅DNA with excess ATP, using the phosphate biosensor, in the stopped-flow apparatus (Figure 6A). […] Both phases are dependent on ATP concentration. The lag decreased, while the rate of the linear phase increased with greater concentrations of ATP. The lag is due to the steps prior to Pi release, namely ATP binding and cleavage. […] Such a burst phase would result from the relatively fast Pi release of the initial cycle before the Pi release of subsequent cycles was limited by slow ADP release.
(§1) Figure 6 ATPase cycle measurements with unmodified nucleotides. (A) Phosphate measurements at different ATP concentrations. 0.5 µM RecG, premixed with 2.5 µM DNA (A40:B40), was then mixed in the stopped-flow apparatus with ATP at the micromolar concentrations shown, in the presence of 10 µM MDCC-PBP. (B) Best fit time courses of the Pi release, based upon a model of the ATPase cycle, as described in the text. Curves were obtained by glogal fitting the curves at different concentrations, using Global kinetic Explorer. Note that in comparison, the experimental time courses show a small transient of Pi at times <100 ms. This is likely to be due to free Pi and this behavior, overlaying a lag, has been observed previously in multi-turnover measurements. (C) ADP Release kinetics. 10 µM RecG⋅DNA (A40∶B40) was pre-bound with 10 µM ADP before mixing with an excess of mantADP (20 µM): these concentrations are final in the mixing chamber. The increase in fluorescence was fitted to single exponential giving the dissociation rate constant of 11.4 (±2.2) s^−1. Rate constants were independent of mantADP concentration in the range of 20–80 µM.
A scheme of the ATPase cycle (Figure 2) was used to simulate the data to assess the individual rate constants. […] The simulated traces (Figure 6B) were obtained from a global fit to the experimental data. This was done by allowing only the rate constants that have maximum influence on the curve shapes to vary. Cleavage and Pi release were assumed to be irreversible. For the fit, Pi release was fixed at 100 s^–1, ADP release at 12.5 s^–1, as the fitting was relatively insensitive to changes in these constants. […] The resulting best fit gave rate constants for ATP binding as 0.65 (±0.02) µM^−1s^−1, dissociation of ATP as 10.0 (±0.6) s^−1, cleavage as 7.1 (±0.1) s^−1. The fit gave a cleavage rate constant similar to the value of k cat from the steady-state analysis (Table 1a). The rate constant for ADP release may be only slightly larger than that of cleavage step.
Data were fitted to theoretical equations using the stopped-flow software or Grafit. Kinetic simulations were performed using Berkeley Madonna (Version 8.3, University of California at Berkeley) and using Global Kinetic Explorer (Kintek). […]

RecG = target: T2, RecG (Thermotoga maritima, UniProt Q9WY48); assay: Steady-state ATPase rate measurements with phosphate biosensor MDCC-PBP; assay type: biochemical; details: 10 µM ATP, varying inhibitor, 500 nM DNA junction (A40:B40), 20°C
T2 construct: made in house
T2 sequence (Q9WY48 1-780): T1 sequence (Q9WY48 1-780)
Text: Steady-state measurements were made to gain an overall assessment of the reaction and the affinities of various nucleotides before investigating the individual steps in the ATPase cycle. A two-strand DNA junction, which contains two 20-bp regions of complementary and non-complementary sequences (A40:B40 Figure 1 and Table S1), was used in all these measurements. This forms a Y-shape structure and RecG translocates one single-stranded arm, but then remains bound to the end of the junction still hydrolyzing ATP [10].
All reactions with RecG and DNA were done at 20°C in a buffer containing 50 mM Tris⋅acetate (pH 8.0), 30 mM potassium acetate, 3 mM magnesium acetate and 1 mM DTT. ATPase measurements using MDCC-PBP were taken in the presence of a Pi mop, as described above. Steady-state ATPase measurements were taken in a solution (60 µl) at 20°C, containing 10 nM RecG, 500 nM DNA junction (A40∶B40, see Table S1) and 10 µM MDCC-PBP with varying nucleotide concentrations as substrate or inhibitor [23].

RecG⋅DNA(A40:B40) [2] = target: T1, RecG⋅DNA(A40:B40); assay: ADP dissociation kinetics by displacement with excess mantADP; assay type: binding
Method: as §1, with “10 µM RecG⋅DNA (A40∶B40) was pre-bound with 10 µM ADP before mixing with an excess of mantADP (20 µM): these concentrations are final in the mixing chamber.” left out, “Rate constants were independent of mantADP concentration in the range of 20–80 µM.” left out
A direct measurement of ADP dissociation kinetics was possible because of its relatively tight binding to RecG, which allowed quantitative formation of the ADP complex. […] The rate constant for dissociation was determined from a single exponential fit as 11.4 (±2) s^−1 (Figure 6C). This value fits well with the model whereby the dissociation rate constant is calculated as ≥12.5 s^−1.

`Nc1ncnc2c1ncn2[C@@H]1O[C@H](COP(=O)(O)OP(=O)(O)O)[C@@H](O)[C@H]1O` [ADP] was tested, and the “ADP binding rate constant in the model” value (RecG⋅DNA(A40:B40) [1]) was 1.7 µM^−1s^–1, the pKi (RecG) was 5.14 and the “ADP dissociation rate constant” value (RecG⋅DNA(A40:B40) [2]; 10 µM RecG⋅DNA pre-bound with 10 µM ADP, mixed with 20 µM mantADP) was 11.4 (±2.2) s^−1. For the same molecule, the “estimated ADP association rate constant” value (RecG⋅DNA(A40:B40) [2]; from dissociation rate constant and K i) was 1.6e+06 M⁻¹ s⁻¹.
